In this experiment the target is T1, IRAK-4 (Homo sapiens, UniProt Q9NWZ3).
T1 sequence (Q9NWZ3 1-460): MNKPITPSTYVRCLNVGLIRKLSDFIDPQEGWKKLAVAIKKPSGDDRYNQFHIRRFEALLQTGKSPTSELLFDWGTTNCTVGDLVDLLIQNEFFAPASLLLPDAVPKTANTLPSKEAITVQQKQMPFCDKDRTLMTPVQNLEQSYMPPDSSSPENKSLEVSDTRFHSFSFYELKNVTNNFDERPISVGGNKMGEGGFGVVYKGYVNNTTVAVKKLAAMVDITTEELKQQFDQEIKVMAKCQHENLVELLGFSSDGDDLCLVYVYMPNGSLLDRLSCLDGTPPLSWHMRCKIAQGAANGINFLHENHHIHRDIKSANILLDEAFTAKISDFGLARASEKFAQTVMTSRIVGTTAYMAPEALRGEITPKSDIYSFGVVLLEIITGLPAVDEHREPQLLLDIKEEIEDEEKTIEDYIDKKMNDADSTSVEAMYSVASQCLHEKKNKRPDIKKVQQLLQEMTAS
Put plainly: IRAK-4 ELISA, PBMC degradation. More on the design: endogenous in cells; host or cells: PBMC. The class given is cell-based. To be noted: treated overnight. An outline of the steps: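 ELISA quantification of cellular IRAK-4 after compound treatment overnight; PBMC were plated at 2×10^6/ml, OCI-Ly10 at 1×10^6/ml.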

Usually DC50 stands for the concentration giving 50% degradation. Read a low DC50 as a more potent degrader. One may read the Dmax as the largest share of the target that was removed. For `O=C1CCC(N2C(=O)c3ccc(N4CCC(COCCN5Cc6cc(NC(=O)c7cnn8cccnc78)c(N7CCOCC7)cc6C5=O)CC4)cc3C2=O)C(=O)N1` (stereo not drawn) [Example 95], the DC50 is below 1 nM, the maximal degradation (Dmax) was at least 90% and the “PBMC DC90” value was “A (A represents a DC90 value <10.0 nM)”.
The corresponding values for `CN(C1CCC(N2Cc3cc(NC(=O)c4cnn5cccnc45)c(OC4CC4)cc3C2=O)CC1)C1CN(c2ccc3c(c2)C(=O)N(C2CCC(=O)NC2=O)C3=O)C1` (stereo not drawn) [Example 341] are below 1 nM, at least 90% and “A (A represents a DC90 value <10.0 nM)”.
For the compound `O=C1CCC(N2C(=O)c3ccc(N4CCC(CN5CCC(N6Cc7cc(NC(=O)c8cnn9cccnc89)c(OC8CC8)cc7C6=O)CC5)CC4)cc3C2=O)C(=O)N1` (stereo not drawn) [Example 27], the DC50 was below 1 nM, the greatest degradation seen (Dmax) was at least 90% and the “PBMC DC90” value is reported as “A (A represents a DC90 value <10.0 nM)”.
With `CC(C)Oc1cc2c(cc1NC(=O)c1cnn3cccnc13)CN(C1CCN(C[C@H]3CN(c4ccc5c(c4)C(=O)N(C4CCC(=O)NC4=O)C5=O)CCO3)CC1)C2=O` (stereo partly drawn) [Example 79], the DC50 was below 1 nM, the Dmax is at least 90% and the “PBMC DC90” value was “A (A represents a DC90 value <10.0 nM)”.
Take `O=C1CCC(N2Cc3cc(N4CC(N5CCC(N6Cc7cc(NC(=O)c8cnn9cccnc89)c(N8CCOCC8)nc7C6=O)CC5)C4)ccc3C2=O)C(=O)N1` (stereo not drawn) [Example 404, N-[6-[1-[1-[2-(2,6-dioxo-3-piperidyl)-1-oxo-isoindolin-5-yl]azetidin-3-yl]-4-piperidyl]-2-morpholino-7-oxo-5H-pyrrolo[3,4-b]pyridin-3-yl]pyrazolo[1,5-a]pyrimidine-3-carboxamide]: the half-maximal degradation concentration (DC50) is at least 10 nM, the greatest degradation seen (Dmax) fell in the range of 80 to 90% and the “PBMC DC90” value was “D (D represents a DC90 value ≥50 nM)”.
As for `CC(C)Oc1cc2nn(C3CCN(CC4(F)CN(c5cccc6c5n(C)c(=O)n6C5CCC(=O)NC5=O)C4)CC3)cc2cc1NC(=O)c1cnn2cccnc12` (stereo not drawn) [Example 386], the DC50 is below 1 nM, the Dmax was at least 90% and the “PBMC DC90” value is given as “A (A represents a DC90 value <10.0 nM)”.
`O=C1CCC(N2C(=O)c3ccc(N4CCN(CCOC[C@H](F)CN5Cc6cc(NC(=O)c7cnn8cccnc78)c(N7CCOCC7)cc6C5=O)CC4)cc3C2=O)C(=O)N1` (stereo partly drawn) [Example 92]: the DC50 is 1 to 5 nM; the Dmax is at least 90%; the “PBMC DC90” value is “B (B represents a DC90 value ≥10.0 nM and <25.0 nM)”.
Consider `O=C1CCC(N2C(=O)c3ccc(N4CC(F)(CN5CCC(n6cc7cc(NC(=O)c8cnn9cccnc89)c(OCC(F)F)cc7n6)CC5)C4)cc3C2=O)C(=O)N1` (stereo not drawn) [Example 232], for which the DC50 is 1 to 5 nM; the “PBMC DC90” value was “C (C represents a DC90 value ≥25.0 nM and <50 nM)”; the “PBMC Dmax” value was “B (B represents a Dmax value ≥80 and <90)”.
For the compound `O=C1CCC(N2C(=O)c3ccc(N4CC(F)(CN5CCC(n6cc7cc(NC(=O)c8cnn9cccnc89)c(OC8CCCC8)cc7n6)CC5)C4)cc3C2=O)C(=O)N1` (stereo not drawn) [Example 198], the DC50 fell in the range of 5 to 10 nM; the greatest degradation seen (Dmax) was at least 90%; the “PBMC DC90” value is “B (B represents a DC90 value ≥10.0 nM and <25.0 nM)”.
Regarding `O=C1CCC(N2C(=O)c3ccc(N4CC(F)(CN5CCC(N6Cc7cc(NC(=O)c8cnn9cccnc89)c(OCC(F)F)cc7C6=O)CC5)C4)cc3C2=O)C(=O)N1` (stereo not drawn) [Example 102], the DC50 is 1 to 5 nM; the greatest degradation seen (Dmax) lay in the range of 70 to 80%; the “PBMC DC90” value was “C (C represents a DC90 value ≥25.0 nM and <50 nM)”.
As to `CC(C)(C)Oc1nc2nn(C3CCN(CC4(F)CN(c5ccc6c(c5)C(=O)N(C5CCC(=O)NC5=O)C6=O)C4)CC3)cc2cc1NC(=O)c1cnn2cccnc12` (stereo not drawn) [Example 220], the 50% degradation concentration (DC50) was 1 to 5 nM; the Dmax lay within 80 to 90%; the “PBMC DC90” value is “C (C represents a DC90 value ≥25.0 nM and <50 nM)”.
In the case of `C[C@@H](Oc1cc2nn(C3CCN(CC4(F)CN(c5ccc6c(c5)C(=O)N(C5CCC(=O)NC5=O)C6=O)C4)CC3)cc2cc1NC(=O)c1cnn2cccnc12)C1CC1` (stereo partly drawn) [Example 223], the DC50 lay within 1 to 5 nM; the greatest degradation seen (Dmax) is 70 to 80%; the “PBMC DC90” value was “C (C represents a DC90 value ≥25.0 nM and <50 nM)”.
For `COc1cc(N2CC(CN3CCC(N4Cc5cc(NC(=O)c6cnn7cccnc67)c(OC(C)C)cc5C4=O)CC3)C2)cc2c1C(=O)N(C1CCC(=O)NC1=O)C2` (stereo not drawn) [Example 21], the DC50 is below 1 nM, the Dmax was at least 90% and the “PBMC DC90” value is “A (A represents a DC90 value <10.0 nM)”.
Turning to `O=C1CCC(N2C(=O)c3ccc(N4CC(O)(CN5CCC(n6cc7cc(NC(=O)c8cnn9cccnc89)c(OCC8CC8)cc7n6)CC5)C4)cc3C2=O)C(=O)N1` (stereo not drawn) [Example 169], the DC50 was below 1 nM, the Dmax is at least 90% and the “PBMC DC90” value is given as 122 nM.
In the case of `O=C1CCC(N2C(=O)c3ccc(N4CC(F)(CN5CCC(N6Cc7cc(NC(=O)c8cnn9cccnc89)c(OCC8CC8)cc7C6=O)CC5)C4)cc3C2=O)C(=O)N1` (stereo not drawn) [Example 89], the DC50 lay within 1 to 5 nM; the greatest degradation seen (Dmax) was in the range of 80 to 90%; the “PBMC DC90” value is “B (B represents a DC90 value ≥10.0 nM and <25.0 nM)”.
`COc1cc2nn(C3CCN(CC4(F)CN(c5ccc6c(c5)C(=O)N(C5CCC(=O)NC5=O)C6=O)C4)CC3)cc2cc1NC(=O)c1cnn2ccc(C3C[C@H]4C[C@@H]3CO4)nc12` (stereo partly drawn) [Example 238]: the DC50 lay in the range of 1 to 5 nM; the Dmax was in the range of 70 to 80%; the “PBMC DC90” value is “B (B represents a DC90 value ≥10.0 nM and <25.0 nM)”.
With `O=C1CCC(N2Cc3cc(N4CC(F)(CN5CCC(n6cc7cc(NC(=O)c8cnn9cccnc89)c(OC8CCC8)cc7n6)CC5)C4)ccc3C2=O)C(=O)N1` (stereo not drawn) [Example 216], the DC50 was below 1 nM; the “PBMC DC90” value is “A (A represents a DC90 value <10.0 nM)”; the “PBMC Dmax” value is “B (B represents a Dmax value ≥80 and <90)”.
For `CC(C)Oc1cc2c(cc1NC(=O)c1cnn3cccnc13)CN(C1CCN(CCOCCOc3ccc4c(c3)CN(C3CCC(=O)NC3=O)C4=O)CC1)C2=O` (stereo not drawn) [Example 2], the 50% degradation concentration (DC50) is below 1 nM, the Dmax was at least 90% and the “PBMC DC90” value worked out at 2 nM.
In the case of `CCN(C1CN(c2cccc3c2n(C)c(=O)n3C2CCC(=O)NC2=O)C1)[C@H]1CC[C@H](n2cc3cc(NC(=O)c4cnn5cccnc45)c(OC(C)C)cc3n2)CC1` (stereo partly drawn) [Example 388], the 50% degradation concentration (DC50) is below 1 nM, the Dmax was at least 90% and the “PBMC DC90” value is recorded as “A (A represents a DC90 value <10.0 nM)”.
With `COc1cc(N2CC(CN3CCC(N4Cc5cc(NC(=O)c6cnn7cccnc67)c(OC(C)C)cc5C4=O)CC3)C2)cc2c1C(=O)N(C1CCC(=O)NC1=O)C2=O` (stereo not drawn) [Example 14], the DC50 is below 1 nM, the greatest degradation seen (Dmax) is at least 90% and the “PBMC DC90” value is “A (A represents a DC90 value <10.0 nM)”.
With `CC(C)Oc1cc2c(cc1NC(=O)c1cnn3cccnc13)CN(C1CCN(CCC3(F)CN(c4ccc5c(c4)C(=O)N(C4CCC(=O)NC4=O)C5=O)C3)CC1)C2=O` (stereo not drawn) [Example 15], the DC50 is below 1 nM, the greatest degradation seen (Dmax) fell in the range of 80 to 90% and the “PBMC DC90” value was “A (A represents a DC90 value <10.0 nM)”.
Consider `O=C1CCC(N2C(=O)c3ccc(N4CC(CN5CCC(N6Cc7cc(NC(=O)c8cnn9cccnc89)c(OC8CC8)cc7C6=O)CC5)C4)cc3C2=O)C(=O)N1` (stereo not drawn) [Example 84], for which the DC50 is below 1 nM, the Dmax is at least 90% and the “PBMC DC90” value was “A (A represents a DC90 value <10.0 nM)”.
As to `COc1cc(N2CC(F)(CN3CCC(n4cc5cc(NC(=O)c6cnn7cccnc67)c(OC(C)C)cc5n4)CC3)C2)cc2c1C(=O)N(C1CCC(=O)NC1=O)C2=O` (stereo not drawn) [Example 217], the half-maximal degradation concentration (DC50) is below 1 nM, the Dmax was 80 to 90% and the “PBMC DC90” value is “A (A represents a DC90 value <10.0 nM)”.
With `O=C1CCC(N2C(=O)c3ccc(N4CC(F)(CN5CCC(n6cc7cc(NC(=O)c8cnn9ccc(N%10CCOCC%10)nc89)c(C(F)F)cc7n6)CC5)C4)cc3C2=O)C(=O)N1` (stereo not drawn) [Example 409], the DC50 was in the range of 1 to 5 nM; the Dmax was at least 90%; the “PBMC DC90” value was “B (B represents a DC90 value ≥10.0 nM and <25.0 nM)”.
As to `CC(C)Oc1cc2c(cc1NC(=O)c1cnn3ccc(N4CCOCC4)nc13)CN(C1CCN(CC3CCN(c4ccc5c(c4)C(=O)N(C4CCC(=O)NC4=O)C5=O)CC3)CC1)C2=O` (stereo not drawn) [Example 74], the DC50 fell in the range of 5 to 10 nM, the maximal degradation (Dmax) fell in the range of 80 to 90% and the “PBMC DC90” value is “D (D represents a DC90 value ≥50 nM)”.
Regarding `O=C1CCC(N2C(=O)c3ccc(N4CC(F)(CN5CCC(n6cc7cc(NC(=O)c8cnn9cccnc89)c(OC8CCC8)cc7n6)CC5)C4)cc3C2=O)C(=O)N1` (stereo not drawn) [Example 196], the DC50 was in the range of 1 to 5 nM; the Dmax lay in the range of 80 to 90%; the “PBMC DC90” value was “B (B represents a DC90 value ≥10.0 nM and <25.0 nM)”.
Consider `O=C1CCC(N2Cc3cc(N4CCC(CN5CCC(N6Cc7cc(NC(=O)c8cnn9cccnc89)c(OC8CC8)cc7C6=O)CC5)CC4)ccc3C2=O)C(=O)N1` (stereo not drawn) [Example 28], for which the DC50 is below 1 nM, the Dmax is at least 90% and the “PBMC DC90” value is reported as “A (A represents a DC90 value <10.0 nM)”.

(Values after US20230099344A1, “COMPOUNDS AND METHODS FOR THE TARGETED DEGRADATION OF IRAK-4” (Arvinas Operations, Inc., priority 2021, published 2023).)
